Test results published in patent EP0238207B1, “Bactericidal mixtures” (PITMAN-MOORE INC., priority 1986, dated 1987).
Read-outs that look alike come from different tables or passages of the source.

Columns and labels:
[1] = tested on: Salmonella dublin strain M738; test: Synergy in experimental bovine salmonellosis, five repeated daily subcutaneous injections (Example 2); assay type: in vivo, calves; settings: for Mortality: s.c., five days
Description: In planning the investigation of possible synergy between Compound A and sulphadimidine (SDD), it was decided that seven treatment groups (including an untreated control group) of eight calves each would be necessary, but because of the impossibility of housing this required total number of calves (56) at one time in the available isolation accommodation, it was planned to carry out two duplicate experiments each using seven groups of four calves.
• 1) "Sodium Sulfamethazine Injectable Solution 25%" - Cyanamid. This commercial preparation contained 250 mg/ml of sodium SDD, equivalent to 232 mg/ml of SDD. • 2) Aqueous solution of SDD, 100 mg/ml in dilute NaOH. • 3) Aqueous solution of Compound A, 20 mg/ml as the hydrochloride.
On the day of infection, Day 0, each calf received an oral dose of 50 ml of a log-phase culture of Salmonella dublin strain M738 diluted to contain an estimated 10¹⁰ organisms, using the published technique (White et al 1981a). A viable count on the inoculum was carried out.
On the basis of Day 0 (am) bodyweights the calves were randomly allocated into 7 groups of 4.
Using Day 0 bodyweights, 3 calves of identical weights to the day 0 weights of the 3 eliminated calves were allocated to the appropriate groups, and the remaining […] were randomly allocated to the 7 groups as above.
Administration of compounds in all cases was by subcutaneous injection, using different sides of the animal for Compound A and SDD when both were given in groups 4, 5 and 6. The first of five consecutive daily injections was given 43 hours after […], the other following at 24 hour intervals.

[2] = Serum concentrations in infected calves (Bratton-Marshall method for sulphonamide, bio-assay for Compound A); assay type: in vivo
Protocol: Blood samples for assay of sulphonamide by the Bratton-Marshall method and for Compound A by bio-assay were collected before and 24 hours after the first injection, 2, 5 and 24 hours after the second injection, 24 hours after the fourth injection and 2, 5 and 24 hours after the fifth injection.

S. dublin strain M738 = test: MIC by surface growth inhibition method, checkerboard two-fold dilution series; assay type: cell-based; settings: for MIC: Salmonella enterica, M738
Protocol: Estimation of the minimum inhibitory concentrations (MICs) of Compound A and SDD, alone and together, was carried out by a surface growth inhibition method, using a "checkerboard" two-fold dilution series, with Compound A and SDD ranges of […] and 256 to 1µg/ml respectively. Thus, including the control plates, a total of 100 different combinations were used. Dilutions were made in Oxoid Isosensitest Agar with plate inoculation by an automatic inoculator using a 2µl inoculum yielding semi-confluent growth over a disc approx. 7 mm diameter. End points were judged to be the lowest concentrations completely or almost completely inhibiting growth.

a range of organisms = settings: against a range of organisms; cited from earlier work
S.dublin = test: Treatment of acute salmonellosis in calves, compound administered alone; assay type: in vivo; settings: administered alone at dosages of up to 6 mg/kg
[3] = cattle older than about six weeks; cited from earlier work

In the case of `Cc1cc(Cc2cnc(N)nc2N)c2cccnc2c1N(C)C` [Compound A, 2,4-diamino-5-(8-dimethylamino-7-methyl-5-quinolylmethyl) pyrimidine], the Mortality ([1]; Group 3: Compound A alone 6 mg/kg daily) is reported as 5 out of 8, the therapeutic effect ([1]; Group 3: Compound A alone at 6 mg/kg daily) is reported as “ineffective” and the “serum concentrations of Compound A” value ([2]; Group 3: Compound A alone at 6 mg/kg daily s.c.) is reported as over 0.256 µg/mL. For the same molecule, the “growth at 24 hours” value (S. dublin strain M738; Compound A 0.002 µg/ml, SDD 0 µg/ml) was “+”, the “growth at 24 hours” value (S. dublin strain M738; Compound A 0.004 µg/ml, SDD 0 µg/ml) was “+” and the “growth at 24 hours” value (S. dublin strain M738; Compound A 0.008 µg/ml, SDD 0 µg/ml) was “+”. The “growth at 24 hours” value (S. dublin strain M738; Compound A 0.016 µg/ml, SDD 0 µg/ml) was “+”, the “growth at 24 hours” value (S. dublin strain M738; Compound A 0.032 µg/ml, SDD 0 µg/ml) was “+” and the “growth at 24 hours” value (S. dublin strain M738; Compound A 0.064 µg/ml, SDD 0 µg/ml) was “+”. The “growth at 24 hours” value (S. dublin strain M738; Compound A 0.128 µg/ml, SDD 0 µg/ml) was “+”, the “growth at 24 hours” value (S. dublin strain M738; Compound A 0.256 µg/ml, SDD 0 µg/ml) was “-” and the “growth at 24 hours” value (S. dublin strain M738; Compound A 0.512 µg/ml, SDD 0 µg/ml) was “-”. For the same molecule, the MIC (S. dublin strain M738; each substance alone, Oxoid Isosensitest Agar, read-out: MIC) was 0.256 µg/mL, the “in vitro antibacterial activity” value (a range of organisms) was “good” and the “effect in treating acute salmonellosis (S.dublin) in calves” value (S.dublin) was “ineffective”.

For `Cc1cc(C)nc(NS(=O)(=O)c2ccc(N)cc2)n1` [SDD, sulphadimidine], the therapeutic effect ([1]; Group 1: SDD alone 200/100 mg/kg daily) was “therapeutically ineffective”, the “clinical recovery of surviving calves” value ([1]; Group 1: SDD alone 200/100 mg/kg, three surviving calves) was “very slow clinical recovery” and the “bodyweight of surviving calves” value ([1]; Group 1: SDD alone 200/100 mg/kg, three surviving calves, Day 21 versus Day 0) was “none had regained its Day 0 bodyweight by Day 21”. The Mortality ([1]; Group 1: SDD alone, first dose 200 mg/kg, subsequent doses 100 mg/kg daily) was 5 out of 8, the Mortality ([1]; Group 2: SDD alone 30 mg/kg daily) was 5 out of 8 and the “serum concentrations of SDD” value ([2]; Group 1: SDD alone 200/100 mg/kg daily s.c., throughout the dosing period) was over 128 µg/mL. The “growth at 24 hours” value (S. dublin strain M738; Compound A 0 µg/ml, SDD 1 µg/ml) was “+”, the “growth at 24 hours” value (S. dublin strain M738; Compound A 0 µg/ml, SDD 2 µg/ml) was “+” and the “growth at 24 hours” value (S. dublin strain M738; Compound A 0 µg/ml, SDD 4 µg/ml) was “+”. For the same molecule, the “growth at 24 hours” value (S. dublin strain M738; Compound A 0 µg/ml, SDD 8 µg/ml) was “+”, the “growth at 24 hours” value (S. dublin strain M738; Compound A 0 µg/ml, SDD 16 µg/ml) was “+” and the “growth at 24 hours” value (S. dublin strain M738; Compound A 0 µg/ml, SDD 32 µg/ml) was “+”. The “growth at 24 hours” value (S. dublin strain M738; Compound A 0 µg/ml, SDD 64 µg/ml) was “+”, the “growth at 24 hours” value (S. dublin strain M738; Compound A 0 µg/ml, SDD 128 µg/ml) was “-” and the “growth at 24 hours” value (S. dublin strain M738; Compound A 0 µg/ml, SDD 256 µg/ml) was “-”. For the same molecule, the MIC (S. dublin strain M738) was 128 µg/mL.

In the case of `COc1cc(Cc2cnc(N)nc2N)cc(OC)c1OC` [trimethoprim], the oral bioavailability [3] is given as “very poor”.
